The source of these data is US20190315771A1, “NOVEL 2-ACYLAMINOTHIAZOLE DERIVATIVE AND PREPARATION METHOD THEREFOR AND USE THEREOF” (SICHUAN KELUN-BIOTECH BIOPHARMACEUTICAL CO., LTD., priority 2016, published 2019).

One series concerns the target T1, human TPOR (Homo sapiens, UniProt P40238).
T1 construct: expressed in transfected cells; host or cells: mouse BAF3 cells
T1 sequence (P40238 26-635): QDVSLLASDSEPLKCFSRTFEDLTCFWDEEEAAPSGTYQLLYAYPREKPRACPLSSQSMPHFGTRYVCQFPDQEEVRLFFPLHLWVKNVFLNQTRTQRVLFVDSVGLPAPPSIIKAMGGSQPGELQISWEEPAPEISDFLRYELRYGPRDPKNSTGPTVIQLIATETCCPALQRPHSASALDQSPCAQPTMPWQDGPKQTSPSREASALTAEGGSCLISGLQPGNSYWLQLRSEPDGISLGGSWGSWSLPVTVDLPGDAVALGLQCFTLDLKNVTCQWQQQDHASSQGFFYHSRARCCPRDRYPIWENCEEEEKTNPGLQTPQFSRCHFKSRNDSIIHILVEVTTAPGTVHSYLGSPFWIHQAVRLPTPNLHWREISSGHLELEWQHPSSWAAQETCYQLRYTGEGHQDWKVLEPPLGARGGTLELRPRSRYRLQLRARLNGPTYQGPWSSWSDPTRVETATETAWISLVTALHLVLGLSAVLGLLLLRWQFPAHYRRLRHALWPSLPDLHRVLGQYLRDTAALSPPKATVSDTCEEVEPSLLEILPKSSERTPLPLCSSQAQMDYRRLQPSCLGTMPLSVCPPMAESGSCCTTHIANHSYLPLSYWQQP
Description: Proliferation of BAF3/TPOR cells (MTS method, OD490). Type of series: cell-based, mouse. To be noted: BAF3 cells stably expressing human TPOR, cultured with compound 24 h. The source says:
The TPO mimetic compound was synthesized in vitro, and the compound acted on the TPO receptor (TPOR) on the cell to stimulate cell proliferation and differentiation. The OD490 value was detected by the MTS method, and the more the number of cells, the larger the OD value, thereby detecting the response of the compound to cell proliferation and differentiation. The agonist concentration at which the increased signal arrived at the highest level was Emax, and the concentration of the compound at which the increased signal arrived at 50% of the signal of Emax was EC50. The activity of the compound was determinable by EC50, and the smaller the EC50, the higher the activity of the compound.
Mouse […] BAF3 stably expressing human TPOR were cultured in 1640 medium containing 10% FBS. On the day of the assay, the cells were counted and seeded in a 96-well plate at 1×10^4 cells/50 μL. 50 μL of different concentrations of the tested compound were added to the wells to a final concentration of 10000 nM, 3000 nM, 300 nM, 30 nM, 3 nM, 0.3 nM, 0.03 nM, 0.003 nM, 0.0003 nM, and the final concentration of DMSO was 1%. After the cells were cultured with the compound for 24 h at 37° C. in a 5% CO2 incubator, 10 μL of detection reagent (Promega, Cell Titer 96® Aqueous One Solution) was added. After mixing, the resulting mixture was incubated for 3 h in the incubator. The OD 490 was detected using a multifunctional automatic microplate reader, and the EC50 was fitted using GraphPad Prism 5 software.
For orientation: Tetrazolium assays rely on reduction of a dye to a coloured formazan, in cell work by metabolically active cells.

For a further series, the target named is hERG potassium channel (Homo sapiens, UniProt Q12809). The series can be described thus: hERG test, electrophysiological manual patch clamp. Type of series: cell-based. To be noted: for hERG potassium channel inhibition (judgement in words): conclusion from Table 2; for IC50: manual patch clamp, IC50 >10 μM judged as no inhibitory effect on hERG. The source says: In cardiomyocytes, the potassium channel encoded by hERG (human Ether-a-go-go Related Gene) mediated the delayed rectifier potassium current (lKr). The IKr inhibition was the most important mechanism for drug-induced QT prolongation and induction of arrhythmia.
Sequence of hERG potassium channel (Q12809 whole entry): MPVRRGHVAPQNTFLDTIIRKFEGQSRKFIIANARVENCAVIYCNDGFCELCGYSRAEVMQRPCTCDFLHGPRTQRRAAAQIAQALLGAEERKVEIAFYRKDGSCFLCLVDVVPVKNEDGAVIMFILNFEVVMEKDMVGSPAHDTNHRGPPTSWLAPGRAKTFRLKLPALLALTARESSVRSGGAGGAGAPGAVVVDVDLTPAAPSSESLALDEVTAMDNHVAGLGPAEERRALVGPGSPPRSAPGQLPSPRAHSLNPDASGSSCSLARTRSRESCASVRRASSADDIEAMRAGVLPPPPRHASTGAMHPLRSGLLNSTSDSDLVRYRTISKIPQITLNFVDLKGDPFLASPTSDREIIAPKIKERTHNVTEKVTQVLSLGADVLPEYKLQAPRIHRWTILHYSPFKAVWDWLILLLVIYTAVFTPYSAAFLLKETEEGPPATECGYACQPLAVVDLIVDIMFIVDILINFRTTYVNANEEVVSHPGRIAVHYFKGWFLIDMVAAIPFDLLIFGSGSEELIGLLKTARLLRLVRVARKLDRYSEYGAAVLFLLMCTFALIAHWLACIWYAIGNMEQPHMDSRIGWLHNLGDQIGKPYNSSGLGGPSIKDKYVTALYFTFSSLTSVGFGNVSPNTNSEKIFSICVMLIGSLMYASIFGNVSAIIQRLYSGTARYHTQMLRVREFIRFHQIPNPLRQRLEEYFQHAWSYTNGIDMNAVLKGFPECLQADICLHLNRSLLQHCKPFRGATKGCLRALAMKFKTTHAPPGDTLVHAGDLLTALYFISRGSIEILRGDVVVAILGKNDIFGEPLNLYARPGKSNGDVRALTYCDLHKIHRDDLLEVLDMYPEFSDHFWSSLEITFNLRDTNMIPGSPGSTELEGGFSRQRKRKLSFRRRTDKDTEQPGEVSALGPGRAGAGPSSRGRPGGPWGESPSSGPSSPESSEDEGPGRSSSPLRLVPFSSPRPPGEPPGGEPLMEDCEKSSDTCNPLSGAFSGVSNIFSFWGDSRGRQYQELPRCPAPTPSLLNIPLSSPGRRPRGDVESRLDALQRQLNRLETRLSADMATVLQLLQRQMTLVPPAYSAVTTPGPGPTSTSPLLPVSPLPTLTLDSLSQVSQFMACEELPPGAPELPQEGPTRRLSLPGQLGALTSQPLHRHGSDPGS
The electrophysiological manual patch clamp was used to detect the effect of the tested compound on the hERG potassium channel.

A word on the EC50: it is the concentration that produces a half-maximal response. Consider `C/C(=C\c1c(Cl)cc(C(=O)Nc2nc(-c3cccc(C(F)(F)F)c3)c(N3CC4CCN(C5CCCCC5)C4C3)s2)cc1Cl)C(=O)O` (stereo not drawn) [Example 35, (E)-3-(2,6-dichloro-4-(5-(1-cyclohexyl-hexahydropyrrolo[3,4-b]pyrrol-5-yl)-4-(3-trifluoromethylphenyl)-thiazol-2-carbamoyl)-phenyl)-2-methyl-acrylic acid], for which the concentration giving a half-maximal response (EC50) on human TPOR came to 0.57 nM.

As for `O=C(Nc1nc(-c2cc(Cl)cs2)c(N2CC3CCN(C4CCC4)C3C2)s1)c1cnc(N2CCC(C(=O)O)CC2)c(Cl)c1` (stereo not drawn) [Example 2, 1-(3-chloro-5-((4-(4-chlorothiophen-2-yl)-5-(1-cyclobutyl-hexahydropyrrolo[3,4-b]-pyrrol-5(1H)-yl)-thiazol-2-yl)-carbamoyl)-pyridin-2-yl)-piperidine-4-carboxylic acid], the EC50 on human TPOR was found to be 0.21 nM. On the same count and under the same terms, then `C/C(=C\c1c(Cl)cc(C(=O)Nc2nc(-c3cc(Cl)cs3)c(N3CC4CCN(C5CCC5)C4C3)s2)cc1Cl)C(=O)O` (stereo not drawn) [Example 37, (E)-3-(2,6-dichloro-4-((4-(4-chlorothiophen-2-yl)-5-(1-cyclobutyl-hexahydropyrrolo[3,4-b]pyrrol-5(1H)-yl)-thiazol-2-yl)-carbamoyl)-phenyl)-2-methylacrylic acid], with 0.34 nM.

By IC50 is commonly meant the point on the concentration scale where inhibition reaches its midpoint. Read a high IC50 as weaker potency. In the case of `C/C(=C\c1c(Cl)cc(C(=O)Nc2nc(-c3cc(Cl)cs3)c(N3C[C@H]4CCN(C5[C@H]6C[C@@H]7C[C@@H](C[C@H]5C7)C6)[C@H]4C3)s2)cc1Cl)C(=O)O` (stereo partly drawn) [Example 51, (E)-3-(4-((5-((3aR,6aR)-1-((1R,3R,5R,7R)-adamantan-2-yl)hexahydropyrrolo[3,4-b]pyrrol-5(1H)-yl)-4-(4-chlorothiophen-2-yl)thiazol-2-yl)carbamoyl)-2,6-dichlorophenyl)-2-methylacrylic acid], at hERG potassium channel, the “hERG potassium channel inhibition (judgement in words)” value is on record as “no hERG inhibition” and the IC50 is greater than 30000 nM. Besides, the EC50 at human TPOR was 0.05 nM. As for `O=C(Nc1nc(-c2cc(Cl)cs2)c(N2CC3CCN(C4[C@H]5C[C@@H]6C[C@@H](C[C@H]4C6)C5)C3C2)s1)c1cnc(N2CCC(C(=O)O)CC2)c(Cl)c1` (stereo partly drawn) [Example 10, 1-(3-chloro-5-((4-(4-chlorothiophen-2-yl)-5-(1-(1R,3R,5R,7R)-adamantanyl-hexahydropyrrolo[3,4-b]pyrrol-5(1H)-yl)-thiazol-2-yl)carbamoyl)-pyridin-2-yl)-piperidine-4-carboxylic acid], at human TPOR, the EC50 amounted to 0.1 nM. As to `O=C(Nc1nc(-c2cc(Cl)cs2)c(N2CC3CCN(C4CCCCC4)C3C2)s1)c1cnc(N2CCC(C(=O)O)CC2)c(Cl)c1` (stereo not drawn) [Example 5, 1-(3-chloro-5-((4-(4-chlorothiophen-2-yl)-5-(1-cyclohexyl-hexahydropyrrolo[3,4-b]pyrrol-5(1H)-yl)-thiazol-2-yl)-carbamoyl)-pyridin-2-yl)-piperidine-4-carboxylic acid], at human TPOR, the EC50 came to 0.08 nM. `CCCCCCO[C@@H](C)c1cccc(-c2csc(NC(=O)c3cc(Cl)c(/C=C(\C)C(=O)O)c(Cl)c3)n2)c1OC` [Lusutrombopag, reference compound]: on hERG potassium channel, the “hERG potassium channel inhibition (judgement in words)” value is given as “significant cardiac hERG potassium channel inhibition” and inhibition was half-maximal at 2370 nM (IC50). On human TPOR, the EC50 came to 1.93 nM. With `C/C(=C\c1c(Cl)cc(C(=O)Nc2nc(-c3cc(Cl)cs3)c(N3CC4CCN(C5C[C@H]6CC[C@@H]5C6)C4C3)s2)cc1Cl)C(=O)O` (stereo partly drawn) [Example 45, (E)-3-(4-((5-(1-(bicyclo[2.2.1]hept-2-yl)-hexahydropyrrolo[3,4-b]pyrrol-5(1H)-yl)-4-(4-chlorothiophen-2-yl)-thiazol-2-yl)-carbamoyl)-2,6-dichlorophenyl)-2-methylacrylic acid], the EC50 on human TPOR was 0.59 nM. For the compound `O=C(Nc1nc(-c2cc(Cl)cs2)c(N2CC3CCN(C4CCCCCC4)C3C2)s1)c1cnc(N2CCC(C(=O)O)CC2)c(Cl)c1` (stereo not drawn) [Example 8, 1-(3-chloro-5-((4-(4-chlorothiophen-2-yl)-5-(1-cycloheptyl-hexahydropyrrolo[3,4-b]pyrrol-5(1H)-yl)-thiazol-2-yl)-carbamoyl)-pyridin-2-yl)-piperidine-4-carboxylic acid], the EC50 at human TPOR was 1.11 nM. `C/C(=C\c1c(Cl)cc(C(=O)Nc2nc(-c3cc(Cl)cs3)c(N3CC4CCN(C5CCCCCC5)C4C3)s2)cc1Cl)C(=O)O` (stereo not drawn) [Example 44, (E)-3-(4-((5-(1-cycloheptyl-hexahydropyrrolo[3,4-b]pyrrol-5(1H)-yl)-4-(4-chlorothiophen-2-yl)-thiazol-2-yl)-carbamoyl)-2,6-dichlorophenyl)-2-methylacrylic acid]: the EC50 on human TPOR was 0.13 nM. On the same count and under the same terms, then `C/C(=C\c1c(Cl)cc(C(=O)Nc2nc(-c3cc(Cl)cs3)c(N3CC4CCN(C5CCCCC5)C4C3)s2)cc1Cl)C(=O)O` (stereo not drawn) [Example 36, (E)-3-(2,6-dichloro-4-((4-(4-chlorothiophen-2-yl)-5-(1-cyclohexyl-hexahydropyrrolo[3,4-b]pyrrol-5(1H)-yl)-thiazol-2-yl)-carbamoyl)-phenyl)-2-methylacrylic acid], with 0.1 nM; and `C/C(=C\c1c(Cl)cc(C(=O)Nc2nc(-c3cc(Cl)cs3)c(N3CCC4C(CCN4C4CCCCC4)C3)s2)cc1Cl)C(=O)O` (stereo not drawn) [Example 48], with 0.6 nM. As for `C/C(=C\c1c(Cl)cc(C(=O)Nc2nc(-c3cc(Cl)cs3)c(N3CC4CCN(C5[C@H]6C[C@@H]7C[C@@H](C[C@H]5C7)C6)C4C3)s2)cc1Cl)C(=O)O` (stereo partly drawn) [Example 46, (E)-3-(4-((5-(1-((1R,3R,5R,7R)-adamantan-2-yl)hexahydropyrrolo[3,4-b]pyrrol-5(1H)-yl)-4-(4-chlorothiophen-2-yl)thiazol-2-yl)carbamoyl)-2,6-dichlorophenyl)-2-methylacrylic acid], the EC50 at human TPOR came to 0.08 nM. The same measure, in the same setting: for `C/C(=C\c1c(Cl)cc(C(=O)Nc2nc(-c3cc(Cl)cs3)c(N3CC4CCN(C5CC(F)(F)C5)C4C3)s2)cc1Cl)C(=O)O` (stereo not drawn) [Example 38, (E)-3-(4-((5-(1-(3,3-difluorocyclobutyl)-hexahydropyrrolo[3,4-b]pyrrol-5(1H)-yl)-4-(4-chlorothiophen-2-yl)-thiazol-2-yl)-carbamoyl)-2,6-dichlorophenyl)-2-methylacrylic acid] the value was 0.43 nM; for `C/C(=C\c1c(Cl)cc(C(=O)Nc2nc(-c3cc(Cl)cs3)c(N3CC4CCN(C5CCCC5)C4C3)s2)cc1Cl)C(=O)O` (stereo not drawn) [Example 40, (E)-3-(2,6-dichloro-4-((4-(4-chlorothiophen-2-yl)-5-(1-cyclopentyl-hexahydropyrrolo[3,4-b]pyrrol-5(1H)-yl)-thiazol-2-yl)-carbamoyl)-phenyl)-2-methylacrylic acid], 0.07 nM. Same read-out and setting: for `O=C(Nc1nc(-c2cc(Cl)cs2)c(N2CC3CCN(C4C[C@H]5CC[C@@H]4C5)C3C2)s1)c1cnc(N2CCC(C(=O)O)CC2)c(Cl)c1` (stereo in doubt) [Example 9, 1-[3-chloro-5-((4-(4-chlorothiophen-2-yl)-5-(1-(bicyclo[2.2.1]hept-2-yl)-hexahydropyrrolo[3,4-b]pyrrol-5(1H)-yl)thiazol-2-yl)carbamoyl)pyridin-2-yl]piperidine-4-carboxylic acid] the value was 0.21 nM; for `O=C(Nc1nc(-c2cc(Cl)cs2)c(N2CC3CCC2CN3C2CCCCC2)s1)c1cnc(N2CCC(C(=O)O)CC2)c(Cl)c1` (stereo not drawn) [Example 29, 3′-chloro-5′-(4-(4-chlorothiophen-2-yl)-5-(5-cyclohexyl-2,5-diazabicyclo[2.2.2]octan-2-yl)-thiazol-2-carbamoyl)-3,4,5,6-tetrahydro-2H-[1,2′]bipyridine-4-carboxylic acid], 0.89 nM.
